± gives the expanded uncertainty stated by the source.
Details: Liquid, Oscillating viscometer

O=[N+]([O-])[O-].[Li+] [lithium nitrate]
Details	viscosity [mPa·s]
544.9 K	5.15 ± 0.32
554.5 K	4.457 ± 0.27
571.7 K	4.195 ± 0.26
592.1 K	3.854 ± 0.24
595.9 K	3.618 ± 0.22
597 K	3.72 ± 0.23
601.3 K	3.549 ± 0.22
603.3 K	3.373 ± 0.21
619.2 K	3.075 ± 0.19
623.2 K	3.024 ± 0.18
627.2 K	3.04 ± 0.19
662.7 K	2.448 ± 0.15
688.8 K	2.169 ± 0.14
689.2 K	2.094 ± 0.13

From the NIST ThermoML archive (doi:10.1007/s10765-016-2150-1)
